This is an account of results in US12492188B2, “1H-benzo[D]imidazole derivatives as TLR9 inhibitors for the treatment of fibrosis” (BRISTOL-MYERS SQUIBB COMPANY, priority 2020, dated 2025).

SMILES strings stand for the structures. Where two headings read alike, the source gives them in different places. Where only a bound is given, the exact number is not on record here.

Common to all, as to format: cell-based
For test [1], the target named is T1, human TLR9 (Homo sapiens, UniProt Q9NR96).
T1 construct: host or cells: HEK-Blue cells (HEK293-derived reporter line)
T1 sequence (Q9NR96 26-1032): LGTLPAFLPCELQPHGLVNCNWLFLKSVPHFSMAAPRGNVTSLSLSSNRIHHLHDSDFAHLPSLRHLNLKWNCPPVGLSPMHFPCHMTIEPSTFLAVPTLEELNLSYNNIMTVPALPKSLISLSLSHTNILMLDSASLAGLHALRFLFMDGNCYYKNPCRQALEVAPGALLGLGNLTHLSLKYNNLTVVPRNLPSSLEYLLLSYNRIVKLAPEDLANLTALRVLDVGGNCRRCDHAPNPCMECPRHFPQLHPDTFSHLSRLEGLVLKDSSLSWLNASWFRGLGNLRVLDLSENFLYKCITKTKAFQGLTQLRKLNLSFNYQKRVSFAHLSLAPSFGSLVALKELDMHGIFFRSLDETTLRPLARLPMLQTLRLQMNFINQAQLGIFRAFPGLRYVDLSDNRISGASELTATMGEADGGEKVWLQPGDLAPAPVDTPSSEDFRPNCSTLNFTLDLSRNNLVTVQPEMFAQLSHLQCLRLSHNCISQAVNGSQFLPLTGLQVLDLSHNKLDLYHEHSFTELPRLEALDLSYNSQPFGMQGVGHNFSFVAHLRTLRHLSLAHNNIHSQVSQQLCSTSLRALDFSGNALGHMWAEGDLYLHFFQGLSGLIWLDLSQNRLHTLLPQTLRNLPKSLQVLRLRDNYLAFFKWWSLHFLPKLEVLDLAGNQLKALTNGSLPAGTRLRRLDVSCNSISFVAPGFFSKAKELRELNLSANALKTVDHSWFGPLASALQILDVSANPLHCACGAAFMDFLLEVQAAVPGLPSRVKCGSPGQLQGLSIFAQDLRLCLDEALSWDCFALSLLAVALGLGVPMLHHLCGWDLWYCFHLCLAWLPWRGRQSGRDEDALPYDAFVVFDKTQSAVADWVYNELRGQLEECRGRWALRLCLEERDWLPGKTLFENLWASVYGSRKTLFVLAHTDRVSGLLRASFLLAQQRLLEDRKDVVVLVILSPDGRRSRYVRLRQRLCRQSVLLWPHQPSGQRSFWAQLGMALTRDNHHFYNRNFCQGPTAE
The test is described as follows: TLR9 inhibition reporter assay (HEK-Blue cells, secreted embryonic alkaline phosphatase reporter). The essentials:
(§1)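 HEK-Blue cells overexpressing the respective receptor, with an NF-κB/AP-1-driven SEAP reporter, were pre-treated with compound (0.05 nM–50 μM) for 30 min at room temperature. Stimulation used gardiquimod 7.5 μM (TLR7), R848 15.9 μM (TLR8) or ODN2006 5 nM (TLR9); SEAP was read after 22 h at 37 °C as percent inhibition.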
(In general: Reporter assays use an easily measured gene product as a stand-in for the process of interest.)

Test [2] concerns the target T2, human TLR7 (Homo sapiens, UniProt Q9NYK1).
T2 construct: host or cells: HEK-Blue cells (HEK293-derived reporter line)
T2 sequence (Q9NYK1 27-1049): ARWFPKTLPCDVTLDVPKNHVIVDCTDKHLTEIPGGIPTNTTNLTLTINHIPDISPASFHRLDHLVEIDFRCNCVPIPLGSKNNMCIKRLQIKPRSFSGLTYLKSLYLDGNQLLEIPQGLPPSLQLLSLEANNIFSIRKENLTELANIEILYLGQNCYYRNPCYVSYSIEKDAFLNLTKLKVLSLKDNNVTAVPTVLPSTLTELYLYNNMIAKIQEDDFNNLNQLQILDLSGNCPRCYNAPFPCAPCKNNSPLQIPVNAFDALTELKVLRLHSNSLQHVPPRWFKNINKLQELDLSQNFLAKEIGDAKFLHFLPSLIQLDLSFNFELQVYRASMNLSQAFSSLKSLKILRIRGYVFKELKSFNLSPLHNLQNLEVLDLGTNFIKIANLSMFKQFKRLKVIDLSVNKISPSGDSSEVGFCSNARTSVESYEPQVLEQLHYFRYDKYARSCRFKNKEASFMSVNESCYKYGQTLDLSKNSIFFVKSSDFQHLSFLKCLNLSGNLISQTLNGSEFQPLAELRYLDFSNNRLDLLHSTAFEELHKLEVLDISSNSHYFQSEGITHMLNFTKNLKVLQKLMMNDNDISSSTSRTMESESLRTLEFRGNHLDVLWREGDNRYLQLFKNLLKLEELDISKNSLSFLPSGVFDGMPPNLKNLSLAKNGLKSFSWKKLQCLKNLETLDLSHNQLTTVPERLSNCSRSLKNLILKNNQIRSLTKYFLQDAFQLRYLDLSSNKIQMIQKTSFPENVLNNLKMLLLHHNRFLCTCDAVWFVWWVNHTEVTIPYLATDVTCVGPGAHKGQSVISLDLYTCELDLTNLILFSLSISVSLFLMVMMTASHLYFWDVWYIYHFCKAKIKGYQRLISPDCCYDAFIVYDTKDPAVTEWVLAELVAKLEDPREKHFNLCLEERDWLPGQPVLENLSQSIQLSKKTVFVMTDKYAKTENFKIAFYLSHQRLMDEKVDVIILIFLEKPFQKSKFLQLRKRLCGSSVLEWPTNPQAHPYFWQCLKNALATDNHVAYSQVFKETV
The test can be described thus: TLR7 inhibition reporter assay (HEK-Blue cells, secreted embryonic alkaline phosphatase reporter). As to conditions: HEK-Blue cells overexpressing human TLR7, stimulated with gardiquimod 7.5 μM; read-out: TLR 7 IC50. The essentials:
as §1

For test [3], the target named is T3, human TLR8 (Homo sapiens, UniProt Q9NR97).
T3 construct: host or cells: HEK-Blue cells (HEK293-derived reporter line)
T3 sequence (Q9NR97 27-1041): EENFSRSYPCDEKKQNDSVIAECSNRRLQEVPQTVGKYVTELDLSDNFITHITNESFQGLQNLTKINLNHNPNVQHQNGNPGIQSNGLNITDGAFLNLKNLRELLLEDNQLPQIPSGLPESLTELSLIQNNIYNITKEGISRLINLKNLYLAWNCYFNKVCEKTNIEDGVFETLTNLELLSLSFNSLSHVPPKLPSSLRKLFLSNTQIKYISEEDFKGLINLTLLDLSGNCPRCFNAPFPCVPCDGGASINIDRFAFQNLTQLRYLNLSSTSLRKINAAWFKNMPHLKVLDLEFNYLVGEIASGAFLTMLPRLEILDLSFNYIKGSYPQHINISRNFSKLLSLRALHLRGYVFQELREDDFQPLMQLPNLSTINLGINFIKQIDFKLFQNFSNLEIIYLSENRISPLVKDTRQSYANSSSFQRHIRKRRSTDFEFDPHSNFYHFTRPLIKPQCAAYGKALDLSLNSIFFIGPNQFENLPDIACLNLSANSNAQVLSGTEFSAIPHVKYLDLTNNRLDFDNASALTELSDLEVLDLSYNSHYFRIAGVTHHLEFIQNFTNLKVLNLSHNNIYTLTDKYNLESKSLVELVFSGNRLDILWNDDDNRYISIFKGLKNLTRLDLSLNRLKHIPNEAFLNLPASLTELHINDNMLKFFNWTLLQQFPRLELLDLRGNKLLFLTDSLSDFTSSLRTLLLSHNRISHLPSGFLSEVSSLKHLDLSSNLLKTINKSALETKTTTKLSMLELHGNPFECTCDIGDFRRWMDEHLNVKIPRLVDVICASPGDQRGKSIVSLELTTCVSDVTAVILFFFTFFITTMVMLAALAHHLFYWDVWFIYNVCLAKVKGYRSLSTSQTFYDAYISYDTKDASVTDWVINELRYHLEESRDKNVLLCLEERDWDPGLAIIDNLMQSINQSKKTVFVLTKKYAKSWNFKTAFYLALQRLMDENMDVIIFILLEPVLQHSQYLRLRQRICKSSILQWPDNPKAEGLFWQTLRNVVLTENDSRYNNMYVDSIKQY
The test can be described thus: TLR8 inhibition reporter assay (HEK-Blue cells, secreted embryonic alkaline phosphatase reporter). As to conditions: HEK-Blue cells overexpressing human TLR8, stimulated with R848 15.9 μM; read-out: TLR 8 IC50. The method, then: TLR7/8/9 Inhibition Reporter Assays
HEK-Blue™-cells (Invivogen) overexpressing human TLR7, TLR8 or TLR9 receptors were used for screening inhibitors of these receptors using an inducible SLAP (secreted embryonic alkaline phosphatase) reporter gene under the control of the […] minimal promoter fused to five NF-κB and AP-1-binding sites. Briefly, cells are seeded into Greiner 384 well plates (15000 cells per well for TLR7, 20,000 for TLR8 and 25,000 for TLR9) and then treated with test compounds in DMSO to yield a final dose response concentration range of 0.05 nM-50 μM. After a 30 minute compound pre-treatment at room temperature, the cells are then stimulated with a TLR7 ligand (gardiquimod at a final concentration of 7.5 μM), TLR8 ligand (R848 at a final concentration of 15.9 μM) or TLR9 ligand (ODN2006 at a final concentration of 5 nM) to activate NF-κB and AP-1 which induce the production of SLAP. After a 22 hour incubation at 37° C., […], SLAP levels are determined with the addition of HEK-Blue™ Detection reagent (Invivogen), a cell culture medium that allows for detection of SLAP, according to manufacturer's specifications. The percent inhibition is determined as the […] in the HEK-Blue signal present in wells treated with agonist plus DMSO alone compared to wells treated with a known inhibitor.

Where [4] appears, read: HEK-Blue cells overexpressing human TLR9, stimulated with ODN2006 5 nM, read-out: TLR 9 IC50.
The mark [5] stands for this setting: HEK-Blue cells overexpressing human TLR9, stimulated with ODN2006 5 nM, 22 hour incubation, reporter readout.

The term IC50 denotes the concentration at which inhibition is half-maximal. As to `Cn1c(-c2ccc(S(C)(=O)=O)cc2)nc2ccc(C3CCN(C4CCN(C5CCOCC5)CC4)CC3)c(F)c21` [Example 264, 7-fluoro-1-methyl-2-(4-(methylsulfonyl)phenyl)-6-(1′-(tetrahydro-2H-pyran-4-yl)-[1,4′-bipiperidin]-4-yl)-1H-benzo[d]imidazole], the IC50 in test [1] stood at 280 nM; in test [1] (setting [4]), 281 nM; in test [2], 2300 nM; in test [3], 20700 nM.
Consider `CCOP(=O)(OCC)c1ccc(-c2nc3c(C)cc(C4CCN(C5CCN(C6CC6)CC5)CC4)cc3n2C)cc1` [Example 422, diethyl(4-(6-(1′-cyclopropyl-[1,4′-bipiperidin]-4-yl)-1,4-dimethyl-1H-benzo[d]imidazol-2-yl)phenyl)phosphonate], for which the 50% inhibitory concentration (IC50) was found to be 180 nM in test [1] (setting [5]), 180 nM in test [1] (setting [4]), 4000 nM in test [2] and 27300 nM in test [3].
Turning to `Cc1cc(-c2ccc(CN3CCC(N(C)C4CC4)CC3)c(F)c2)cc2c1nc(-c1ccc(S(C)(=O)=O)cc1)n2C` [Example 394, N-cyclopropyl-1-(4-(1,4-dimethyl-2-(4-(methylsulfonyl)phenyl)-1H-benzo[d]imidazol-6-yl)-2-fluorobenzyl)-N-methylpiperidin-4-amine], the IC50 in test [1] (setting [5]) is 560 nM; in test [1] (setting [4]), 563 nM; in test [2], > 50000 nM; in test [3], 5700 nM.
In the case of `COc1ccc(-c2nc3ccc(-c4ccc(CN5CCC(N(C)C)CC5)cc4)cc3n2C)cc1` [Example 376, 1-(4-(2-(4-methoxyphenyl)-1-methyl-1H-benzo[d]imidazol-6-yl)benzyl)-N,N-dimethylpiperidin-4-amine], the IC50 in test [1] (setting [5]) came out at 210 nM; in test [1] (setting [4]) it was 206 nM; in test [2] it was 800 nM; in test [3] it was 1400 nM.
With `CC(C)CN1C2CCC1CC(N1CCC(c3ccc4c(nc(-c5ccc(S(C)(=O)=O)cc5)n4C)c3F)CC1)C2` (single isomer, unassigned) [Example 189, 4-fluoro-5-(1-(8-isobutyl-8-azabicyclo[3.2.1]octan-3-yl)piperidin-4-yl)-1-methyl-2-(4-(methylsulfonyl)phenyl)-1H-benzo[d]imidazole], the IC50 in test [1] was 150 nM; in test [1] (setting [4]), 154 nM; in test [2], > 50000 nM; in test [3], > 50000 nM.
Turning to `COc1ccc(-c2nc3ccc(C4CCN(C5CCN(C6CC6)CC5)CC4)cc3n2C(C)C)cc1OC` [Example 31, 6-(1′-cyclopropyl-[1,4′-bipiperidin]-4-yl)-2-(3,4-dimethoxyphenyl)-1-isopropyl-1H-benzo[d]imidazole], the IC50 is 750 nM in test [1] (setting [5]), 749 nM in test [1] (setting [4]), > 50000 nM in test [2] and > 50000 nM in test [3].
On to `Cc1cc(-c2ccc(CN3CC4(C3)CN(CC(C)C)C4)cc2)cc2c1nc(-c1ccc(S(C)(=O)=O)cc1)n2C` [Example 371, 6-(4-((6-isobutyl-2,6-diazaspiro[3.3]heptan-2-yl)methyl)phenyl)-1,4-dimethyl-2-(4-(methylsulfonyl)phenyl)-1H-benzo[d]imidazole], for which the half-inhibitory concentration (IC50) stood at 55 nM in test [1] (setting [5]), 1800 nM in test [2] and 6800 nM in test [3].
For `Cc1cc(C2CCN(C3CC4CCC(C3)N4CC(C)C)CC2)cc2[nH]c(-c3ccc(S(C)(=O)=O)cc3)nc12` (stereo not drawn) [Example 121, 6-(1-(8-isobutyl-8-azabicyclo[3.2.1]octan-3-yl)piperidin-4-yl)-4-methyl-2-(4-(methylsulfonyl)phenyl)-1H-benzo[d]imidazole], in that order: 19 nM, 14500 nM and > 25000 nM.
